Like-named read-outs stand apart in the source and are kept apart here.
What was measured:
[1] = Serum azithromycin pharmacokinetics after 2 g oral capsule dose, single vs divided (Example 1); assay type: in vivo; details: male, human, mean; for AUC(0-t): read-out: AUC0–144
Experimental: (§1) In a double-blind, randomized, placebo-controlled parallel group study, healthy male subjects were divided into three groups. Group A received a single 2 g azithromycin dose as eight 250 mg azithromycin capsules (“bolus dosing” group). Group B received the same total dose, administered as eight 250 mg capsules at the rate of one 250 mg capsule each 30 minutes for 3.5 hr (“divided dosing” group). Group C received matching placebo capsules. All subjects received eight capsules of drug or placebo at time 0, and a capsule of drug or placebo every half-hour for 3.5 hr. All subjects were dosed after an overnight fast. […] Tmax is the time at which Cmax is achieved.

[2] = 3,995 patients, all dose levels combined, cited from earlier work
[3] = human body; cited from earlier work
[4] = Visual Analogue Scale gastrointestinal side effects after 2 g oral capsule dose, single vs divided (Example 1); assay type: in vivo, human; parameters: key to Mean Cumulative Score (Visual Analogue Scale), abdominal pain / Mean Cumulative Score (Visual Analogue Scale), nausea / Mean Cumulative Score (Visual Analogue Scale), regurgitation / Mean Cumulative Score (Visual Analogue Scale), abdominal cramping: per-subject sum of 0–10 VAS scores over 240 h, averaged over group; details: for Incidence of Visual-Analogue-Scale score >1, abdominal cramping / Incidence of Visual-Analogue-Scale score >1, abdominal pain / Incidence of Visual-Analogue-Scale score >1, nausea / Incidence of Visual-Analogue-Scale score >1, regurgitation / Incidence of Visual-Analogue-Scale score >4, abdominal cramping / Incidence of Visual-Analogue-Scale score >4, abdominal pain / Incidence of Visual-Analogue-Scale score >4, nausea / Incidence of Visual-Analogue-Scale score >4, regurgitation: any time during 240 hr post-dose, #patients reporting score/total # patients; for Mean Cumulative Score (Visual Analogue Scale), abdominal cramping / Mean Cumulative Score (Visual Analogue Scale), abdominal pain / Mean Cumulative Score (Visual Analogue Scale), nausea / Mean Cumulative Score (Visual Analogue Scale), regurgitation: entire 240 hour post-dose period
Experimental: as §1
Prior to dosing and each blood sampling time, each subject filled out a questionnaire, which consisted of a series of “Visual Analogue Scales” in which the subject was required to rate, on a scale of 0–10, the severity of certain potential side effects. The subjects were instructed that “0” indicated an absent effect and “10” indicated the worst possible effect. The subjects were instructed to interpolate between 0 and 10 for moderate side effects.
Analysis of side effect visual-analogue-scale data was carried out in two formats. In the first format (Table II), the analysis concentrated on the general incidence of side effects of a particular type. For each side effect type (e.g., abdominal pain), Table II reports the number of subjects who reported a score >1 at any time during the 240 hr post-dosing, and the number of subjects who reported a score >4 at any time during the 240 hr post-dosing. This analysis assumes that all scores >1 represent a real side effect occurrence, however mild or severe. A score >4 is presumed to reflect a moderate-to-severe side effect occurrence.
In the second format (Table III), the analysis reflects the general severity and duration of side effects. For a particular side effect (e.g., Abdominal Pain) in a particular subject, all visual-analogue-scale scores (over the 240 hr post-dose period) were summed to give a “cumulative score” over the entire time period of evaluation. “Cumulative scores” for all members of a treatment group were summed, and divided by the number of subjects in the group, to give a Mean Cumulative Score. […] Table III presents Mean Cumulative Scores for abdominal pain, nausea, regurgitation, and abdominal cramping.

[5] = Serum azithromycin pharmacokinetics after 2 hr intravenous infusion (Example 3); assay type: in vivo; details: male, human, 2 hr infusion
Experimental: Healthy male subjects were divided into four groups. Group A received a 2 hr intravenous infusion of a placebo solution (0 g azithromycin). Group B received a 2 hr intravenous infusion of a 1 g dose of azithromycin. Group C received a 2 hr intravenous infusion of a 2 g dose of azithromycin. Group D received a 2 hr intravenous infusion of a 4 g dose of azithromycin. […] All subjects were dosed after an overnight fast.
Tmax is the time at which Cmax is achieved.

[6] = 250 mg capsule per half-hr for 3.5 hr (2 g total), oral, fasted
[7] = 2 g single oral dose as eight 250 mg capsules, fasted
[8] = 250 mg per half-hr for 3.5 hr (2 g total), oral
[9] = 250 mg/half-hr for 3.5 hr (2 g total), oral

Cmax [1, 6]: 1130 ng/mL
Tmax [1, 6]: 4.4 h
AUC(0-t) [1, 6]: 18900 ng·h/mL
Cmax ([1]; 2 g single oral dose as eight 250 mg capsules, fasted healthy male subjects): 1690 ng/mL
Tmax [1, 7]: 1.3 h
AUC(0-t) [1, 7]: 18800 ng·h/mL
AUC(0-inf) ([5]; 1.0 g total IV dose, n = 6): 23400 ng·h/mL
Cmax ([5]; 1.0 g total IV dose, n = 6): 3110 ng/mL
Tmax ([5]; 1.0 g total IV dose, n = 6): 1.9 h
AUC(0-inf) ([5]; 2.0 g total IV dose, n = 6): 45600 ng·h/mL
Cmax ([5]; 2.0 g total IV dose, n = 6): 6840 ng/mL
Tmax ([5]; 2.0 g total IV dose, n = 6): 1.8 h
AUC(0-inf) ([5]; 4.0 g total IV dose, n = 5): 82100 ng·h/mL
Cmax ([5]; 4.0 g total IV dose, n = 5): 9910 ng/mL
Tmax ([5]; 4.0 g total IV dose, n = 5): 1.1 h
Compound: CC[C@H]1OC(=O)[C@H](C)[C@@H](O[C@H]2C[C@@](C)(OC)[C@@H](O)[C@H](C)O2)[C@H](C)[C@@H](O[C@@H]2O[C@H](C)C[C@H](N(C)C)[C@H]2O)[C@](C)(O)C[C@@H](C)CN(C)[C@H](C)[C@@H](O)[C@]1(C)O [azithromycin, 9a-aza-9a-methyl-9-deoxo-9a-homoerythromycin A]
patients reporting gastrointestinal side effects ([2]; oral): 9.6%
incidence of abdominal pain [2]: 2.5%
incidence of diarrhea [2]: 3.6%
incidence of nausea [2]: 2.6%
elimination half-life [3]: about 69 hours
Incidence of Visual-Analogue-Scale score >1, abdominal cramping [4, 8]: 4/14
Incidence of Visual-Analogue-Scale score >1, abdominal pain [4, 8]: 6/14
Incidence of Visual-Analogue-Scale score >1, nausea [4, 8]: 3/14
Incidence of Visual-Analogue-Scale score >1, regurgitation [4, 8]: 0/14
Incidence of Visual-Analogue-Scale score >4, abdominal cramping [4, 8]: 0/14
Incidence of Visual-Analogue-Scale score >4, abdominal pain [4, 8]: 1/14
Incidence of Visual-Analogue-Scale score >4, nausea [4, 8]: 0/14
Incidence of Visual-Analogue-Scale score >4, regurgitation [4, 8]: 0/14
Mean Cumulative Score (Visual Analogue Scale), abdominal cramping [4, 9]: 4.46
Mean Cumulative Score (Visual Analogue Scale), abdominal pain [4, 9]: 6.31
Mean Cumulative Score (Visual Analogue Scale), nausea [4, 9]: 2.77
Mean Cumulative Score (Visual Analogue Scale), regurgitation [4, 9]: 1.38
Incidence of Visual-Analogue-Scale score >1, abdominal cramping ([4]; 2 g single oral dose): 6/15
Incidence of Visual-Analogue-Scale score >1, abdominal pain ([4]; 2 g single oral dose): 6/15
Incidence of Visual-Analogue-Scale score >1, nausea ([4]; 2 g single oral dose): 2/15
Incidence of Visual-Analogue-Scale score >1, regurgitation ([4]; 2 g single oral dose): 0/15
Incidence of Visual-Analogue-Scale score >4, abdominal cramping ([4]; 2 g single oral dose): 1/15
Incidence of Visual-Analogue-Scale score >4, abdominal pain ([4]; 2 g single oral dose): 2/15
Incidence of Visual-Analogue-Scale score >4, nausea ([4]; 2 g single oral dose): 1/15
Incidence of Visual-Analogue-Scale score >4, regurgitation ([4]; 2 g single oral dose): 0/15
Mean Cumulative Score (Visual Analogue Scale), abdominal cramping ([4]; 2 g single oral dose): 4.67
Mean Cumulative Score (Visual Analogue Scale), abdominal pain ([4]; 2 g single oral dose): 6.4
Mean Cumulative Score (Visual Analogue Scale), nausea ([4]; 2 g single oral dose): 1.93
Mean Cumulative Score (Visual Analogue Scale), regurgitation ([4]; 2 g single oral dose): 0.53

Source: patent US7108865B2, “Controlled-release dosage forms of azithromycin” (Pfizer Inc, priority 1994, dated 2006)
